Test results reported in US10647675B2 (priority 2015, dated 2020).
In brackets after ≈: the same amount, converted by molar mass.

Key:
[1] = tested on: Trichophyton mentagrophytes SM-110; test: Antifungal activity evaluation test: minimum inhibitory concentration (MIC), broth dilution by reference to CLSI M38-A2; type: cell-based; details: SM110, read-out: MIC (T. menta.)
Method in brief: (§1)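 MIC read visually as lowest concentration inhibiting growth by at least 80% relative to control after 4 days at 35° C. Trichophyton strains inoculated at 2×10^3 cells/mL final in MOPS-buffered RPMI 1640 (pH 7.0); compounds as 2-fold DMSO series, CLSI M38-A2 basis.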

[2] = tested on: Trichophyton rubrum KD-1130; test: as above; type: cell-based; details: KD1130, read-out: MIC (T. rubrum)
Method in brief: as §1

| MIC [1] [µg/mL] | MIC [2] [µg/mL] | Structure (SMILES) |
| --- | --- | --- |
| ≤ 0.1 | ≤ 0.1 | Cn1ncc(Cl)c1-c1cccnc1Oc1ccc(C(F)(F)F)cc1 [I-222, 3-(4-chloro-1-methyl-1H-pyrazol-5-yl)-2-[4-(trifluoromethyl)phenoxy]pyridine] |
| ≤ 0.1 | ≤ 0.1 | C=C(C)c1ccc(Oc2ncccc2-c2ccccc2OC)cn1 [I-453] |
| 0.2 to 0.78 (≈ 0.501 to 1.95 µM) | 0.2 to 0.78 (≈ 0.501 to 1.95 µM) | CCOC(=O)COc1ncc(Oc2ncccc2-c2ccc(F)cc2OC)cn1 [I-196, ethyl 2-[(5-{[3-(4-fluoro-2-methoxyphenyl)pyridin-2-yl]oxy}-pyrimidin-2-yl)oxy]acetate] |
| 0.2 to 0.78 (≈ 0.524 to 2.05 µM) | 0.2 to 0.78 (≈ 0.524 to 2.05 µM) | N#Cc1cnn2c(-c3cccnc3Oc3ccc(C(F)(F)F)nc3)cccc12 [I-54, 7-(2-{[6-(trifluoromethyl)pyridin-3-yl]oxy}pyridin-3-yl)-pyrazolo[1,5-a]pyridine-3-carbonitrile] |
| 0.2 to 0.78 (≈ 0.555 to 2.16 µM) | 0.2 to 0.78 (≈ 0.555 to 2.16 µM) | CCOc1ccccc1-c1cccnc1Oc1ccc(C(F)(F)F)nc1 [I-17, 3-(2-ethoxyphenyl)-2-{[6-(trifluoromethyl)pyridin-3-yl]oxy}pyridine] |
| ≤ 0.1 | ≤ 0.1 | COc1ccncc1-c1cccnc1Oc1ccc(C(C)(F)F)cc1 [I-297, 2-[4-(1,1-difluoroethyl)-phenoxy]-4′-methoxy-3,3′-bipyridine] |
| 0.2 to 0.78 (≈ 0.473 to 1.84 µM) | 0.2 to 0.78 (≈ 0.473 to 1.84 µM) | COc1cc(F)ccc1-c1cccnc1Oc1cnc(I)nc1 [I-191, 5-{[3-(4-fluoro-2-methoxyphenyl)pyridin-2-yl]oxy}-2-iodopyrimidine] |
| ≤ 0.1 | ≤ 0.1 | COCC(F)(F)c1ccc(Oc2ncccc2-c2cc(F)ccc2OC)cn1 [I-162, 2-{[6-(1,1-difluoro-2-methoxyethyl)pyridin-3-yl]oxy}-3-(5-fluoro-2-methoxyphenyl)pyridine] |
| ≤ 0.1 | ≤ 0.1 | COc1ccc(-c2cccnc2Oc2cnc(C(F)F)c(C)c2)c(OC)n1 [I-123, 2′-{[6-(difluoromethyl)-5-methylpyridin-3-yl]oxy}-2,6-dimethoxy-3,3′-bipyridine] |
| ≤ 0.1 | ≤ 0.1 | COc1ccccc1-c1cncnc1Oc1ccc(C(C)(F)F)nc1 [I-312, 4-{[6-(1,1-difluoroethyl)-pyridin-3-yl]oxy}-5-(2-methoxyphenyl)pyrimidine] |
| 1.56 to 6.25 (≈ 4.08 to 16.3 µM) | 1.56 to 6.25 (≈ 4.08 to 16.3 µM) | CC(F)(F)c1ccc(Oc2ncccc2-c2cccnc2N2CCCC2)cn1 [I-105] |
| 0.2 to 0.78 (≈ 0.576 to 2.25 µM) | 0.2 to 0.78 (≈ 0.576 to 2.25 µM) | Cc1nsc(C)c1-c1cccnc1Oc1ccc(C(C)(F)F)nc1 [I-101, 4-(2-{[6-(1,1-difluoroethyl)pyridin-3-yl]oxy}pyridin-3-yl)-3,5′-dimethylisothiazole] |
| ≤ 0.1 | ≤ 0.1 | COc1cc(F)c(F)cc1-c1cncnc1Oc1ccc(C(F)(F)F)nc1 [I-328, 5-(4,5-difluoro-2-methoxyphenyl)-4-{[6-(trifluoromethyl)pyridin-3-yl]oxy}pyrimidine] |
| ≤ 0.1 | ≤ 0.1 | CCOC(=O)c1ccc(Oc2ncccc2-c2cnccc2Cl)cc1 [I-414] |
| 0.2 to 0.78 (≈ 0.573 to 2.23 µM) | 0.2 to 0.78 (≈ 0.573 to 2.23 µM) | COc1c(-c2cccnc2Oc2ccc(C(F)(F)F)cc2)cnn1C [I-223, 3-(5-methoxy-1-methyl-1H-pyrazol-4-yl)-2-[4-(trifluoromethyl)phenoxy]pyridine] |
| ≤ 0.1 | ≤ 0.1 | COc1ccncc1-c1cccnc1Oc1ccc(C(F)(F)F)cc1 [I-210, 4′-methoxy-2-[4-(trifluoromethyl)phenoxy]-3,3′-bipyridine] |
| ≤ 0.1 | ≤ 0.1 | FC(F)(F)c1ccc(Oc2ncccc2-c2cccc3c2OCC3)cn1 [I-35, 3-(2,3-dihydrobenzofuran-7-yl)-2-{[6-(trifluoromethyl)pyridin-3-yl]oxy}pyridine] |
| ≤ 0.1 | ≤ 0.1 | COc1ncccc1-c1cccnc1Oc1ccc(C)cc1 [I-459] |

| MIC [1] [µg/mL] | MIC [2] [µg/mL] | Structure (SMILES) |
| --- | --- | --- |
| ≤ 0.1 | ≤ 0.1 | COc1cnccc1-c1cccnc1Oc1ccc(C(F)(F)F)cc1 [I-204, 3′-methoxy-2-[4-(trifluoromethyl)phenoxy]-3,4′-bipyridine] |
| 1.56 to 6.25 (≈ 4.38 to 17.5 µM) | 1.56 to 6.25 (≈ 4.38 to 17.5 µM) | FC(F)(F)c1ccc(Oc2ncccc2-c2cnn3ccccc23)cn1 [I-49, 3-(2-{[6-(trifluoromethyl)pyridin-3-yl]oxy}pyridin-3-yl)-pyrazolo[1,5-a]pryidine] |
| ≤ 0.1 | ≤ 0.1 | Cc1ccncc1-c1cccnc1Oc1ccc(-n2cccn2)cc1 [I-433] |
| ≤ 0.1 | ≤ 0.1 | FC(F)(F)c1ccc(Oc2ncccc2-c2cncc3cccnc23)cc1 [I-225, 8-{2-[4-(trifluoromethyl)phenoxy]pyridin-3-yl}-1,6-naphthyridine] |
| ≤ 0.1 | ≤ 0.1 | COc1ncccc1-c1cccnc1Oc1ccc(CCc2cc(C)no2)cc1 [I-408, 5-(4-{[2′-methoxy-(3,3′-bipyridin)-2-yl]oxy}phenethyl)-3-methylisoxazole] |
| ≤ 0.1 | ≤ 0.1 | FC(F)(F)c1ccc(Oc2ncncc2-c2cccc3ccnn23)cc1 [I-332, 7-{4-[4-(trifluoromethyl)phenoxy]pyrimidin-5-yl}pyrazolo[1,5-a]pyridine] |
| ≤ 0.1 | ≤ 0.1 | Cc1c(F)cncc1-c1cccnc1Oc1ccc(C(F)(F)F)cc1 [I-208] |
| 1.56 to 6.25 (≈ 4.35 to 17.4 µM) | 1.56 to 6.25 (≈ 4.35 to 17.4 µM) | CC(=O)c1ccccc1-c1cccnc1Oc1ccc(C(F)(F)F)nc1 [I-19, 1-[2-(2-{[6-(trifluoromethyl)pyridin-3-yl]oxy}pyridin-3-yl)phenyl]ethanone] |
| ≤ 0.1 | ≤ 0.1 | COc1ccncc1-c1cc(F)cnc1Oc1ccc(C(F)(F)F)cc1 [I-216, 5-fluoro-4′-methoxy-2-[4-(trifluoromethyl)phenoxy]-3,3′-bipyridine] |
| 0.2 to 0.78 (≈ 0.529 to 2.06 µM) | 0.2 to 0.78 (≈ 0.529 to 2.06 µM) | COc1ccncc1-c1cccnc1Oc1ccc(SC(F)(F)F)cc1 [I-239, 4′-methoxy-2-{4-[(trifluoromethyl)thio]phenoxy}-3,3′-bipyridine] |
| ≤ 0.1 | ≤ 0.1 | COC(=O)CN(C)c1ncc(Oc2ncccc2-c2ccccc2OC)cn1 [I-387, methyl 2-[(5-{[3-(2-methoxyphenyl)pyridin-2-yl]oxy}pyrimidin-2-yl)(methyl)amino]acetate] |
| ≤ 0.1 | ≤ 0.1 | FC(F)(F)c1ccc(Oc2ncccc2-c2cccc3ccnn23)cn1 [I-44, 7-(2-{[6-(trifluoromethyl)pyridin-3-yl]oxy}pyridin-3-yl)-pyrazolo[1,5-a]pryidine] |
| ≤ 0.1 | ≤ 0.1 | COCC(F)(F)c1ccc(Oc2ncccc2-c2cc(Cl)ccc2OC)cn1 [I-163, 3-(5-chloro-2-methoxyphenyl)-2-{[6-(1,1-difluoro-2-methoxyethyl)pyridin-3-yl]oxy}pyridine] |
| ≤ 0.1 | ≤ 0.1 | COc1ccc(F)c(-c2cccnc2Oc2ccc(C(F)F)nc2)c1 [I-74, 2-{[6-(difluoromethyl)pyridin-3-yl]oxy}-3-(2-fluoro-5-methoxyphenyl)pyridine] |
| ≤ 0.1 | ≤ 0.1 | CCc1ccc(Oc2ncccc2-c2cncc(Cl)c2OC)cc1 [I-284, 5′-chloro-2-(4-ethylphenoxy)-4′-methoxy-3,3′-bipyridine] |
| ≤ 0.1 | 0.2 to 0.78 (≈ 0.622 to 2.43 µM) | COc1ccccc1-c1cccnc1Oc1ccc(N(C)C)nc1 [I-365] |
| 0.2 to 0.78 (≈ 0.637 to 2.49 µM) | 0.2 to 0.78 (≈ 0.637 to 2.49 µM) | COc1ccccc1-c1cccnc1Oc1cnc(Cl)nc1 [I-338, 2-chloro-5-{[3-(2-methoxyphenyl)pyridin-2-yl]oxy}pyrimidine] |
